Where two headings read alike, the source gives them in different places.
Tests used:
Format in all cases: biochemical
[1] = target: 320 wild-type protein kinases (Homo sapiens, UniProt P21802); details: singlicate
Source text: (§1) Table S4. Profiling of two compounds at two concentrations against 320 wild-type protein kinases; singlicate measurement; Residual activities (% of control).

[2] = target: 320 wild-type protein kinases (Homo sapiens, UniProt Q06187); details: BTK, singlicate
Source text: as §1

[3] = target: 320 wild-type protein kinases (Homo sapiens, UniProt P08631); details: HCK, singlicate
Chain of 320 wild-type protein kinases (Homo sapiens, UniProt P08631) (P08631 whole entry): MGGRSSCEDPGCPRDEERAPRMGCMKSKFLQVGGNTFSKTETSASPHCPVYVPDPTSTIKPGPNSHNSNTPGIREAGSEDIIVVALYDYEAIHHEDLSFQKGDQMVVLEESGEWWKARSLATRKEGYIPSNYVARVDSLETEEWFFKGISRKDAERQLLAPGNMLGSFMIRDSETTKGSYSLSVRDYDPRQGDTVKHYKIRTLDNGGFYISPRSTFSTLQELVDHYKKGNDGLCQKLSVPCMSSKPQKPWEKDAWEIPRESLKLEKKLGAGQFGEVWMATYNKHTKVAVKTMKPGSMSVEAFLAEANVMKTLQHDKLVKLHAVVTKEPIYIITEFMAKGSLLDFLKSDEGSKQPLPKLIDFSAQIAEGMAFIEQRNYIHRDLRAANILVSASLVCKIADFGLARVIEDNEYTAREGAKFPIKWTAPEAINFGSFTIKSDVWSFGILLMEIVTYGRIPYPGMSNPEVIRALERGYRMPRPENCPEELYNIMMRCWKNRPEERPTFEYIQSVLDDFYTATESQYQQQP
Source text: as §1

[4] = target: 320 wild-type protein kinases (Homo sapiens, UniProt Q04912); details: kinase RON, singlicate
Source text: as §1

[5] = target: T1, 320 wild-type protein kinases (Homo sapiens, UniProt O15264); details: p38-delta, singlicate
T1 sequence (O15264 1-365): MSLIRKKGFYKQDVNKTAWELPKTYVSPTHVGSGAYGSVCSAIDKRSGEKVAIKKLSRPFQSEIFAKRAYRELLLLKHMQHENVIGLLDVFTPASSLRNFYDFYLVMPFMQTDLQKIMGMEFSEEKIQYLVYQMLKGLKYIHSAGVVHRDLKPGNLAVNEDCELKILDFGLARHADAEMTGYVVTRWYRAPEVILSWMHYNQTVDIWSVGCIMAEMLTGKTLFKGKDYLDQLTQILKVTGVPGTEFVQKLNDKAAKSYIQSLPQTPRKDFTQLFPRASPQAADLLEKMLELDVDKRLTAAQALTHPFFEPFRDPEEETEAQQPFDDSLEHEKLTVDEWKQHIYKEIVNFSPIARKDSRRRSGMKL
Source text: as §1

[6] = target: 320 wild-type protein kinases (Homo sapiens, UniProt O96013); details: singlicate
Source text: as §1

[7] = target: 320 wild-type protein kinases (Homo sapiens, UniProt Q9Y2K2); details: kinase SIK3, singlicate
Chain of 320 wild-type protein kinases (Homo sapiens, UniProt Q9Y2K2) (Q9Y2K2 whole entry): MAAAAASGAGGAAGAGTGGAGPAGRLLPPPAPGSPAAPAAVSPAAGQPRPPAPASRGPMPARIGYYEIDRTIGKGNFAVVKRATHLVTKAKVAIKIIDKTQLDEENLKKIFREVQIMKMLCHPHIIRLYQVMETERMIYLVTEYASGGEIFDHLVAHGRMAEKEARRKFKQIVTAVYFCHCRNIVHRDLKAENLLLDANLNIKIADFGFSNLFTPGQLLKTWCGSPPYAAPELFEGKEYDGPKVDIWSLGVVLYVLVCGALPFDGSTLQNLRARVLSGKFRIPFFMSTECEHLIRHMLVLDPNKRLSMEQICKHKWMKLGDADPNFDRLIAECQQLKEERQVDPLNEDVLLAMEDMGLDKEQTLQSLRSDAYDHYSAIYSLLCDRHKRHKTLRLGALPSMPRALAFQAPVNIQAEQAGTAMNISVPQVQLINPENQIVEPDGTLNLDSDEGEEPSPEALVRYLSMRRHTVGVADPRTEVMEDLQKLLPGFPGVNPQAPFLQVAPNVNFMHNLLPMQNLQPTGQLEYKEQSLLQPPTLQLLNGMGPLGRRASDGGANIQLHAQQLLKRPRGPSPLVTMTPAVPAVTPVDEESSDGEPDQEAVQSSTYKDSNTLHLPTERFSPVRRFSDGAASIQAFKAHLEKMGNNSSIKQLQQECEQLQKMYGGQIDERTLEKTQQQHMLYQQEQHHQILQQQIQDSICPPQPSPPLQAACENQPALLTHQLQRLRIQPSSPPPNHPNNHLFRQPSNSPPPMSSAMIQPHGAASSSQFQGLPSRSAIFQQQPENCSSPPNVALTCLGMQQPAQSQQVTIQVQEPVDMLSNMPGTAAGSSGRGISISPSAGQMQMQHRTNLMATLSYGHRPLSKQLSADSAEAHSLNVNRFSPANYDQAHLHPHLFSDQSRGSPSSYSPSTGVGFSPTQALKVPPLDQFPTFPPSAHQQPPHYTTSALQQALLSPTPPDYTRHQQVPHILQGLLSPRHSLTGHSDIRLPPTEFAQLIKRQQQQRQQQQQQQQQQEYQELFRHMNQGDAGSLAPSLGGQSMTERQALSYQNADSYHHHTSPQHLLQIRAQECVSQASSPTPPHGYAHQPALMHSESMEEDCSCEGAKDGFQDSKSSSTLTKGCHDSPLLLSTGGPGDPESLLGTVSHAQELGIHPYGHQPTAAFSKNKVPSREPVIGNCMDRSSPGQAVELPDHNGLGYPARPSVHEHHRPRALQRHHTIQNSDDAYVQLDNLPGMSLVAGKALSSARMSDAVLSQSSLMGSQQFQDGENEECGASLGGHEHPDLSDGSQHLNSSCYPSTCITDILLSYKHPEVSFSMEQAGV
Source text: as §1

[8] = target: 320 wild-type protein kinases (Homo sapiens, UniProt Q9H4A3); details: kinase WNK1, singlicate
Source text: as §1

[9] = target: 320 wild-type protein kinases (Homo sapiens, UniProt P51451); details: BLK, singlicate
Chain of 320 wild-type protein kinases (Homo sapiens, UniProt P51451) (P51451 whole entry): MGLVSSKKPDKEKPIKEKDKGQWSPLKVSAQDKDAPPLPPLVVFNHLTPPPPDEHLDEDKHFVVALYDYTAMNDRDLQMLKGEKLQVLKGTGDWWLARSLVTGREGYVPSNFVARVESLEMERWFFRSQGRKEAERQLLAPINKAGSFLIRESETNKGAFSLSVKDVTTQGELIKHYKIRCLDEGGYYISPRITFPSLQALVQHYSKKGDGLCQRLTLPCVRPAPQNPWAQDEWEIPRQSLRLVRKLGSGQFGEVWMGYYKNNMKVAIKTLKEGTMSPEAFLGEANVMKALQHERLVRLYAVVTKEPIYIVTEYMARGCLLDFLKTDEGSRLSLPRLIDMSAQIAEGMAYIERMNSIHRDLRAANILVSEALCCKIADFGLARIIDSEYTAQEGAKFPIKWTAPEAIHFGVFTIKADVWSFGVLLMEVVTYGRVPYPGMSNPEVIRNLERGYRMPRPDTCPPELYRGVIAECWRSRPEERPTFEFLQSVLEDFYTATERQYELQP
Source text: as §1

[10] = target: 320 wild-type protein kinases (Homo sapiens, UniProt P04049, Y340D/Y341D); details: kinase RAF1 Y340D/Y341D (untagged), singlicate
Source text: as §1

[11] = target: 320 wild-type protein kinases (Homo sapiens, UniProt Q86V86); details: singlicate
Source text: as §1

[12] = target: T2, 320 wild-type protein kinases (Homo sapiens, UniProt P29320); details: singlicate
T2 sequence (P29320 21-983): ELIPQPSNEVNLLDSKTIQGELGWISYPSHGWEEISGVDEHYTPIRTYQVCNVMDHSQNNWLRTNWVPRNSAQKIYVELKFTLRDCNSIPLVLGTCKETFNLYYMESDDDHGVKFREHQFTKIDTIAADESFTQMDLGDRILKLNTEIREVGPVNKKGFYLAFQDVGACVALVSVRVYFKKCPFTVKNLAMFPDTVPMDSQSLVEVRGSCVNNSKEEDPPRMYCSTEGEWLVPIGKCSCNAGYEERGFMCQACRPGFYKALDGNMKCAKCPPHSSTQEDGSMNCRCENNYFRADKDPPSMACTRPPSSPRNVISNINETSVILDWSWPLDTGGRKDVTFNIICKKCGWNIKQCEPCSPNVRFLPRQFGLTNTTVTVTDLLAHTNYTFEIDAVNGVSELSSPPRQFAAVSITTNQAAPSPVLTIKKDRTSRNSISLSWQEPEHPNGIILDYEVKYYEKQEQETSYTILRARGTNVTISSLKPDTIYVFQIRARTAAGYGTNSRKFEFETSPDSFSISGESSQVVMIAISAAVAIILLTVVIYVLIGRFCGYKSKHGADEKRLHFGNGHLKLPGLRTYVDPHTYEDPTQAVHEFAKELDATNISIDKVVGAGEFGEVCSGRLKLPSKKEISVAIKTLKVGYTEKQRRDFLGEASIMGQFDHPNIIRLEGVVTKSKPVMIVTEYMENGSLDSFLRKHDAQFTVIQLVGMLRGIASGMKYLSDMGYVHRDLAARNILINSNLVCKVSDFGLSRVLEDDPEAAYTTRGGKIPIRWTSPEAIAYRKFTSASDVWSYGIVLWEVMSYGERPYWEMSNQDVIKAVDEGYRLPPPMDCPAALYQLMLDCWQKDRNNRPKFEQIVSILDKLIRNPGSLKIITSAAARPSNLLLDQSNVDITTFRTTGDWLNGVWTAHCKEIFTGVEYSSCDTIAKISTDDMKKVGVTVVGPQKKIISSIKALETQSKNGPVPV
Source text: as §1

[13] = target: 320 wild-type protein kinases (Homo sapiens, UniProt O43293); details: singlicate
Chain of 320 wild-type protein kinases (Homo sapiens, UniProt O43293) (O43293 whole entry): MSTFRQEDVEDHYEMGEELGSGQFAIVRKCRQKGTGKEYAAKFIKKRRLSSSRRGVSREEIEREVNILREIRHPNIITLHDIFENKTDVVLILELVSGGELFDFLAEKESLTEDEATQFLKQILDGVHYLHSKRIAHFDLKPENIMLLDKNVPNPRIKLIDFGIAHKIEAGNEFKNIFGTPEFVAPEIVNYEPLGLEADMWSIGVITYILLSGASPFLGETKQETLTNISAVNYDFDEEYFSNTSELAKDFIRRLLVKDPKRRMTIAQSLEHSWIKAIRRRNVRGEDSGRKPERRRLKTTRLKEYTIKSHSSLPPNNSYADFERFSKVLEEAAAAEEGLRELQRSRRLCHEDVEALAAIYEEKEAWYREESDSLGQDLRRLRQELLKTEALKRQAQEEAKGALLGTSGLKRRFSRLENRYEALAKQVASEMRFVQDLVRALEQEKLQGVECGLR
Source text: as §1

Chain of 320 wild-type protein kinases (Homo sapiens, UniProt P21802) (P21802 22-821): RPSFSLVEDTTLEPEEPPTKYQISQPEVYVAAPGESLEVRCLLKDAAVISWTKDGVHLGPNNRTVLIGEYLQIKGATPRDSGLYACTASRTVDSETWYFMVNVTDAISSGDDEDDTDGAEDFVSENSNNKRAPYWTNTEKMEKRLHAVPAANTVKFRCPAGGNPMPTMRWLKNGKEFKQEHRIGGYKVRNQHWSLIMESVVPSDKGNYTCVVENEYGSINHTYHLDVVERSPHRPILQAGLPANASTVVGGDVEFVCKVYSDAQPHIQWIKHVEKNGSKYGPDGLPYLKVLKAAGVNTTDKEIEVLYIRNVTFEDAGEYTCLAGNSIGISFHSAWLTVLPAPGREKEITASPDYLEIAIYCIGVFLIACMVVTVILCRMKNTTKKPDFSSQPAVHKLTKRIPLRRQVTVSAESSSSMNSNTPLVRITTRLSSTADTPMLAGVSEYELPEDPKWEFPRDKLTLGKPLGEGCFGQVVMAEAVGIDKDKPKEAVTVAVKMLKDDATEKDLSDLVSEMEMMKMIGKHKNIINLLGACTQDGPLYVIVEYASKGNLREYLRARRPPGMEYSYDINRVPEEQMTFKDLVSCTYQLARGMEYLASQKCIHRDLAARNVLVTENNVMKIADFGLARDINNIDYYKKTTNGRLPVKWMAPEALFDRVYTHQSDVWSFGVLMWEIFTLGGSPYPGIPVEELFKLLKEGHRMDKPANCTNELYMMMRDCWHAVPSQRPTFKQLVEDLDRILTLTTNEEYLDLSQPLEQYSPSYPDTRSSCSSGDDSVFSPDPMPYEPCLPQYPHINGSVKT
Chain of 320 wild-type protein kinases (Homo sapiens, UniProt Q06187) (Q06187 whole entry): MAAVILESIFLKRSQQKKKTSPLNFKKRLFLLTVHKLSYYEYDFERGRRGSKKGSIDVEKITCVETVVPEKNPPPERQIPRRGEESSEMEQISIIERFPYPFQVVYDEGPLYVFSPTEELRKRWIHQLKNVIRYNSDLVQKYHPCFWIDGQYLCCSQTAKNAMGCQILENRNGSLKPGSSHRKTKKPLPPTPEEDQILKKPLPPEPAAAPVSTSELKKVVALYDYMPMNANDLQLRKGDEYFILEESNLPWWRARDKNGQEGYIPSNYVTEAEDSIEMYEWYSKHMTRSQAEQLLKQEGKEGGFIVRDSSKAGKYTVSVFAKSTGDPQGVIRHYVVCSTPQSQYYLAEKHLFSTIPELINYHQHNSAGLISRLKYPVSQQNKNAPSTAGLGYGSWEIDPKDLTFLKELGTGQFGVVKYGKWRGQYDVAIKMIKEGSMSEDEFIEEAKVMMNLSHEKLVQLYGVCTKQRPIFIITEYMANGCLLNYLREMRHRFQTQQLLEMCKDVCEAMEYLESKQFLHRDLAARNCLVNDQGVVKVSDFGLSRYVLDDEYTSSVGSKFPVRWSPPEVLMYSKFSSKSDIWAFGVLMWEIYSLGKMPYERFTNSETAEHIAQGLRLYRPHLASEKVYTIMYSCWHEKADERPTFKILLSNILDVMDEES

SMILES: C#Cc1cc(Nc2ncnc3cc(I)ccc23)ccc1Cl [Compound 41]
- Residual activity ([1]; FGF-R2, 1.0E-06 M): 85 % of control
- Residual activity ([1]; FGF-R2, 1.0E-07 M): 88 % of control
- Residual activity ([2]; 1.0E-06 M): 100 % of control
- Residual activity ([2]; 1.0E-07 M): 103 % of control
- Residual activity ([3]; 1.0E-06 M): 90 % of control
- Residual activity ([3]; 1.0E-07 M): 110 % of control
- Residual activity, RON ([4]; assay conc. 1.0E-06 M): 63 % of control
- Residual activity, RON ([4]; assay conc. 1.0E-07 M): 77 % of control
- Residual activity ([5]; 1.0E-06 M): 94 % of control
- Residual activity ([5]; 1.0E-07 M): 112 % of control
- Residual activity ([6]; PAK4, 1.0E-06 M): 82 % of control
- Residual activity ([6]; PAK4, 1.0E-07 M): 103 % of control
- Residual activity, SIK3 ([7]; assay conc. 1.0E-06 M): 72 % of control
- Residual activity, SIK3 ([7]; assay conc. 1.0E-07 M): 77 % of control
- Residual activity, WNK1 ([8]; assay conc. 1.0E-06 M): 70 % of control
- Residual activity, WNK1 ([8]; assay conc. 1.0E-07 M): 84 % of control
- Residual activity ([9]; 1.0E-06 M): 93 % of control
- Residual activity ([9]; 1.0E-07 M): 99 % of control
- Residual activity, RAF1 Y340D/Y341D (untagged) ([10]; assay conc. 1.0E-06 M): 99 % of control
- Residual activity, RAF1 Y340D/Y341D (untagged) ([10]; assay conc. 1.0E-07 M): 95 % of control
- Residual activity ([11]; PIM3, 1.0E-06 M): 83 % of control
- Residual activity ([11]; PIM3, 1.0E-07 M): 81 % of control
- Residual activity ([12]; EPHA3, 1.0E-06 M): 119 % of control
- Residual activity ([12]; EPHA3, 1.0E-07 M): 118 % of control
- Residual activity ([13]; DAPK3, 1.0E-06 M): 109 % of control
- Residual activity ([13]; DAPK3, 1.0E-07 M): 110 % of control

SMILES: C#Cc1cc(Nc2ncnc3cc(OC)c(OC)cc23)ccc1Cl [Compound 45]
- Residual activity ([1]; FGF-R2, 1.0E-06 M): 69 % of control
- Residual activity ([1]; FGF-R2, 1.0E-07 M): 87 % of control
- Residual activity ([2]; 1.0E-06 M): 65 % of control
- Residual activity ([2]; 1.0E-07 M): 100 % of control
- Residual activity ([3]; 1.0E-06 M): 72 % of control
- Residual activity ([3]; 1.0E-07 M): 102 % of control
- Residual activity, RON ([4]; assay conc. 1.0E-06 M): 82 % of control
- Residual activity, RON ([4]; assay conc. 1.0E-07 M): 90 % of control
- Residual activity ([5]; 1.0E-06 M): 94 % of control
- Residual activity ([5]; 1.0E-07 M): 111 % of control
- Residual activity ([6]; PAK4, 1.0E-06 M): 95 % of control
- Residual activity ([6]; PAK4, 1.0E-07 M): 103 % of control
- Residual activity, SIK3 ([7]; assay conc. 1.0E-06 M): 58 % of control
- Residual activity, SIK3 ([7]; assay conc. 1.0E-07 M): 83 % of control
- Residual activity, WNK1 ([8]; assay conc. 1.0E-06 M): 95 % of control
- Residual activity, WNK1 ([8]; assay conc. 1.0E-07 M): 93 % of control
- Residual activity ([9]; 1.0E-06 M): 62 % of control
- Residual activity ([9]; 1.0E-07 M): 99 % of control
- Residual activity, RAF1 Y340D/Y341D (untagged) ([10]; assay conc. 1.0E-06 M): 88 % of control
- Residual activity, RAF1 Y340D/Y341D (untagged) ([10]; assay conc. 1.0E-07 M): 83 % of control
- Residual activity ([11]; PIM3, 1.0E-06 M): 53 % of control
- Residual activity ([11]; PIM3, 1.0E-07 M): 81 % of control
- Residual activity ([12]; EPHA3, 1.0E-06 M): 111 % of control
- Residual activity ([12]; EPHA3, 1.0E-07 M): 128 % of control
- Residual activity ([13]; DAPK3, 1.0E-06 M): 114 % of control
- Residual activity ([13]; DAPK3, 1.0E-07 M): 112 % of control
